According to US20110301200A1, “THYROID RECEPTOR LIGANDS” (CADILA HEALTHCARE LIMITED, priority 2008, published 2011):

Legend:
TR-β = molecular target: T1, TR-β (Homo sapiens, UniProt P10828); assay: In vitro TR-β activity (in-house protocol); type: cell-based; settings: for fold induction at 0.001 µM: Conc. 1 nM; for fold induction at 0.001 µM / fold induction at 0.01 µM / fold induction at 0.1 µM / fold induction at 1 µM: read-out: TR-β Fold Induction w.r.t T3(100 nm); for fold induction at 0.01 µM: Conc. 10 nM; for fold induction at 0.1 µM: Conc. 100 nM; for fold induction at 1 µM: Conc. 1000 nM
T1 sequence (P10828 1-461): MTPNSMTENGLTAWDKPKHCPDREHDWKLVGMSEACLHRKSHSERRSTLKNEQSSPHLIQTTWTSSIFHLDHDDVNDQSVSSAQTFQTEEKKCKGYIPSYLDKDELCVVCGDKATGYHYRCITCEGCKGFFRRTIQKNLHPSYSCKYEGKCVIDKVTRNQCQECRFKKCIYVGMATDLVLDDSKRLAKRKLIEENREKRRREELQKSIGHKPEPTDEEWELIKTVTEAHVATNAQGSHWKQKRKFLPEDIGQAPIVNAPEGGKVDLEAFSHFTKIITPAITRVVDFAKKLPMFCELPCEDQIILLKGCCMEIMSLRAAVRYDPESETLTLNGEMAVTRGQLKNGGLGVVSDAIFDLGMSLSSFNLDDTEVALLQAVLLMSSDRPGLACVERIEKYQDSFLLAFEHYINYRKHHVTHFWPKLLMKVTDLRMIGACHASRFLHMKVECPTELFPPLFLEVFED
Protocol: (§1) In vitro TR-α & TR-β activities were determined as per in-house protocols and the results of representative compounds are provided in tables 1 & 2 below as a proof of the efficacies of the novel class of compounds disclosed above.

TR-α = molecular target: T2, TR-α (Homo sapiens, UniProt P10827); assay: In vitro TR-α activity (in-house protocol); type: cell-based; settings: for fold induction at 0.001 µM: Conc. 1 nM; for fold induction at 0.001 µM / fold induction at 0.01 µM / fold induction at 0.1 µM / fold induction at 1 µM: read-out: TR-α Fold Induction w.r.t T3(100 nm); for fold induction at 0.01 µM: Conc. 10 nM; for fold induction at 0.1 µM: Conc. 100 nM; for fold induction at 1 µM: Conc. 1000 nM
T2 sequence (P10827 1-410 isoform P10827-2): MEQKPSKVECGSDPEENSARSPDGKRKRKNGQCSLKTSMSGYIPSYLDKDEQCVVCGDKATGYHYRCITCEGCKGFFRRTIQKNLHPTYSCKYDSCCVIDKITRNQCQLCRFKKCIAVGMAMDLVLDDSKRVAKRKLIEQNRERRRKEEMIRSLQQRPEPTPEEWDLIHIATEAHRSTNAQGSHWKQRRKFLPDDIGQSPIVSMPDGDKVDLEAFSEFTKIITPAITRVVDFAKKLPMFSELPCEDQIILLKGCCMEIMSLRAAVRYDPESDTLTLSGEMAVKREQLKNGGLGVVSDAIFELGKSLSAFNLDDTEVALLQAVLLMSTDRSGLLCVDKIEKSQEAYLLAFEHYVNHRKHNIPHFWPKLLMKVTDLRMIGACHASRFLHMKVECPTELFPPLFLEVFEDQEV
Protocol: as §1

| SMILES | fold induction at 0.001 µM (TR-β) | fold induction at 0.01 µM (TR-β) | fold induction at 0.1 µM (TR-β) | fold induction at 1 µM (TR-β) | fold induction at 0.001 µM (TR-α) | fold induction at 0.01 µM (TR-α) | fold induction at 0.1 µM (TR-α) | fold induction at 1 µM (TR-α) | EC50 (TR-β) [µM] | EC50 (TR-α) [µM] |
| --- | --- | --- | --- | --- | --- | --- | --- | --- | --- | --- |
| CC(C)(ON=Cc1cc(Br)c(Oc2ccc(O)c(Cc3ccccc3)c2)c(Br)c1)C(=O)O [Example 22, 2-(((4-(3-benzyl-4-hydroxyphenoxy)-3,5-dibromobenzylidene)amino)oxy)-2-methylpropanoic acid] | 9.09 | 24.9 | 44.9 | 73.9 | 12.1 | 27.2 | 48.6 | 85.1 |  |  |
| CC(ON=Cc1cc(Cl)c(Oc2ccc(O)c(C(C)C)c2)c(Cl)c1)C(=O)O (stereo not drawn) [Example 8, 2-(((3,5-dichloro-4-(4-hydroxy-3-isopropylphenoxy)benzylidene)amino)oxy)propanoic acid] | 16.3 | 45.4 | 85.2 | 89 | 12.4 | 29.5 | 75 | 76.6 |  |  |
| CC(C)(ON=Cc1cc(Br)c(Oc2ccc(O)c(-c3ccccc3)c2)c(Br)c1)C(=O)O [Example 20, 2-(((3,5-dibromo-4-((6-hydroxy-[1,1′-biphenyl]-3-yl)oxy)benzylidene)amino)oxy)-2-methyl propanoic acid] | 8.98 | 14.8 | 46 | 98.6 | 9.45 | 13.1 | 34.5 | 74.3 |  |  |
| O=C(O)CON=Cc1cc(Br)c(Oc2ccc(O)c(C(O)c3cccc(Cl)c3)c2)c(Br)c1 (stereo not drawn) [Example 35, 2-(((3,5-dibromo-4-(3-((3-chlorophenyl)(hydroxy)methyl)-4-hydroxyphenoxy)benzylidene)amino)oxy)acetic acid] |  |  |  |  |  |  |  |  | 4.9 | 2.1 |
| CCC(C)c1cc(Oc2c(Cl)cc(C=NOCC(=O)O)cc2Cl)ccc1O (stereo not drawn) [Example 2, 2-(((4-(3-(sec-butyl)-4-hydroxyphenoxy)-3,5-dichlorobenzylidene)amino)oxy)acetic acid] | 14 | 34.5 | 79.4 | 115 | 10.2 | 26.7 | 66.7 | 108 |  |  |
| O=C(O)CON=Cc1cc(Br)c(Oc2ccc(O)c(S(=O)(=O)N3CCCC3)c2)c(Br)c1 [Example 41, 2-(((3,5-dibromo-4-(4-hydroxy-3-(pyrrolidin-1-ylsulfonyl)phenoxy)benzylidene)amino)oxy)acetic acid] | 6.51 | 6.74 | 14 | 58.1 | 12.6 | 12.8 | 17.7 | 46.1 |  |  |
| O=C(O)CON=Cc1cc(Br)c(Oc2ccc(O)c(C(=O)c3ccc(Br)cc3)c2)c(Br)c1 [Example 31, 2-(((3,5-dibromo-4-(3-(4-bromobenzoyl)-4-hydroxyphenoxy)benzylidene)amino)oxy)acetic acid] | 11.8 | 14.3 | 41.5 | 50.3 | 13.7 | 17.2 | 38.3 | 39.2 |  |  |
| CC(ON=Cc1cc(Br)c(Oc2ccc(O)c(S(=O)(=O)NC3CCCCC3)c2)c(Br)c1)C(=O)O (stereo not drawn) [Example 39, 2-(((3,5-dibromo-4-(3-(N-cyclohexylsulfamoyl)-4-hydroxyphenoxy)benzylidene)amino)oxy)propanoic acid] | 11.5 | 11.2 | 15.8 | 40.4 | 10.6 | 11.8 | 13.5 | 29.5 |  |  |
| CC(ON=Cc1cc(Br)c(Oc2ccc(O)c(C(O)c3ccc(Cl)cc3)c2)c(Br)c1)C(=O)O (stereo not drawn) [Example 27, 2-(((3,5-dibromo-4-(3-((4-chlorophenyl)(hydroxy)methyl)-4-hydroxyphenoxy)benzylidene)amino)oxy)propanoic acid] | 10.1 | 16.4 | 29.1 | 107 | 13.2 | 14.4 | 45.2 | 76.4 |  |  |
| CC(ON=Cc1cc(Br)c(Oc2ccc(O)c(C(C)(C)C)c2)c(Br)c1)C(=O)O (stereo not drawn) [Example 24, 2-(((3,5-dibromo-4-(3-(tert-butyl)-4-hydroxyphenoxy)benzylidene)amino)oxy)propanoic acid] | 16.6 | 48.9 | 105 | 86.1 | 18.5 | 52.1 | 102 | 121 |  |  |
| CCC(ON=Cc1cc(Br)c(Oc2ccc(O)c(Cc3ccccc3)c2)c(Br)c1)C(=O)O (stereo not drawn) [Example 17, 2-(((4-(3-benzyl-4-hydroxyphenoxy)-3,5-dibromobenzylidene)amino)oxy)butanoic acid] | 21.2 | 31.3 | 81.5 | 85.6 | 21.6 | 38.5 | 66.2 | 109 |  |  |
| CC(ON=Cc1cc(Br)c(Oc2ccc(O)c(C(=O)c3cccc(Cl)c3)c2)c(Br)c1)C(=O)O (stereo not drawn) [Example 30, 2-(((3,5-dibromo-4-(3-(3-chlorobenzoyl)-4-hydroxyphenoxy)benzylidene)amino)oxy)propanoic acid] |  |  |  |  |  |  |  |  | 0.166 | 0.143 |
| O=C(O)CON=Cc1cc(Br)c(Oc2ccc(O)c(-c3ccccc3)c2)c(Br)c1 [Example 7, 2-(((3,5-dibromo-4-((6-hydroxy-[1,1′-biphenyl]-3-yl)oxy)benzylidene)amino)oxy)acetic acid] |  |  |  |  |  |  |  |  | 0.0029 | 0.0052 |
| CCC(C)c1cc(Oc2c(Cl)cc(C=NOC(C)C(=O)O)cc2Cl)ccc1O (stereo not drawn) [Example 23, 2-(((4-(3-(sec-butyl)-4-hydroxyphenoxy)-3,5-dichlorobenzylidene)amino)oxy)propanoic acid] | 19.2 | 53.1 | 78.9 | 90 | 22.6 | 48.2 | 92.2 | 138 |  |  |
| O=C(O)CON=Cc1cc(Br)c(Oc2ccc(O)c(C(O)c3ccc(Br)cc3)c2)c(Br)c1 (stereo not drawn) [Example 32, 2-(((3,5-dibromo-4-(3-((4-bromophenyl)(hydroxy)methyl)-4-hydroxyphenoxy)benzylidene)amino)oxy)acetic acid] | 11.8 | 12.9 | 14.5 | 65 | 20.4 | 16.8 | 22.8 | 69.8 |  |  |
